PMC5359624, “A structure- and chemical genomics-based approach for repositioning of drugs against VCP/p97 ATPase” (Scientific Reports, 2017)
Several values for one entry are separate records, joined by “and”; a condition that tells them apart may be missing. Equal values may be shown once. Residues, ends and D or L forms follow the SMILES beside them. *: point of attachment. Cbz = O=C(OCc1ccccc1)*

Tests used:
[1] = test system: UbG76V-GFP (p97-dependent substrate); assay: UbG76V-GFP degradation assay (dual-reporter HeLa cell line); type: cell-based; conditions: HeLa dual-reporter cells, 160 min
Procedure: (§1) First, the activities of these compounds against VCP/p97 in a cell-based degradation assay[31] were evaluated. For this purpose, we used a dual-reporter system to monitor the ubiquitin-proteasome system (UPS) and VCP/p97 function in mammalian cells. This system comprises an ubiquitin fusion degradation (UFD) reporter Ub^G76V-GFP and the oxygen-dependent degradation domain of HIF1α fused to luciferase (ODD-Luc), a non-ERAD substrate for proteasomal degradation. Measurement of GFP and luciferase activity in response to a treatment allows to assess the effect on p97-dependent and p97-independent proteolysis.
(§2) A dual-reporter stable HeLa cell line was generated to monitor UPS function in mammalian cells. A ubiquitin fusion degradation (UFD) reporter Ub^G76V-GFP and an oxygen-dependent degradation domain of HIF1α fused to luciferase (ODD-Luc). […] Cells were seeded on 384-well plates (3000 cells/well) and grown for 18 h. Cells were treated with modified DMEM (without phenol red, folic acid, riboflavin, and vitamin B12) containing MG132 (4 μM) for 1 h and washed twice with pre-warmed PBS. […] Plates were imaged on the ImageXpress Micro microscope (Molecular Devices) after 160 min. Luciferase activity were measured by adding D-Luciferin (10 μl of 2.5 mg/mL in PBS) into each well containing 38 μl of medium and incubated at room temperature for 10 min. Use Synergy Neo (BioTek) to read Luciferase signal.

[2] = test system: ODD-Luc (p97-independent proteasome substrate); assay: ODD-Luc degradation assay (dual-reporter HeLa cell line); type: cell-based; conditions: HeLa dual-reporter cells
Procedure: as §1, §2

WT VCP/p97 ATPase = WT VCP/p97 ATPase (Homo sapiens, UniProt P55072); assay: In vitro ATPase assay, WT VCP/p97; type: biochemical; conditions: 200 μM ATP, 8-dose titration
Excerpt: (§3) In order to test direct inhibition of VCP/p97 ATPase activity by these compounds, we performed in vitro ATPase assays of the five UPS and VCP/p97 perturbing compounds to evaluate their inhibitory activity against VCP/p97.

E578Q VCP/p97 ATPase = E578Q VCP/p97 ATPase (Homo sapiens, UniProt P55072, E578Q); assay: In vitro ATPase assay, E578Q (D2 Walker B mutant, D1-active); type: biochemical; conditions: for IC50: 200 μM ATP, 8-dose titration
Excerpt: as §3

E305Q VCP/p97 ATPase = E305Q VCP/p97 ATPase (Homo sapiens, UniProt P55072, E305Q); assay: In vitro ATPase assay, E305Q (D1 Walker B mutant, D2-active); type: biochemical; conditions: for IC50: 200 μM ATP, 8-dose titration
Excerpt: as §3

VCP = test system: VCP; design: method as in PMID 23892893; conditions: read-out: Experimental IC50; cited from earlier work
NSCLC cells = test system: NSCLC cells; design: method as in PMID 27333030; conditions: sub-micromolar concentrations; cited from earlier work
[3] = design: method as in PMID 23245311; conditions: oral administration in mice; cited from earlier work
[4] = cited from earlier work
tumor growth = conditions: 50 mg/kg, mice; cited from earlier work

Chain of E578Q VCP/p97 ATPase (P55072 whole entry E578Q): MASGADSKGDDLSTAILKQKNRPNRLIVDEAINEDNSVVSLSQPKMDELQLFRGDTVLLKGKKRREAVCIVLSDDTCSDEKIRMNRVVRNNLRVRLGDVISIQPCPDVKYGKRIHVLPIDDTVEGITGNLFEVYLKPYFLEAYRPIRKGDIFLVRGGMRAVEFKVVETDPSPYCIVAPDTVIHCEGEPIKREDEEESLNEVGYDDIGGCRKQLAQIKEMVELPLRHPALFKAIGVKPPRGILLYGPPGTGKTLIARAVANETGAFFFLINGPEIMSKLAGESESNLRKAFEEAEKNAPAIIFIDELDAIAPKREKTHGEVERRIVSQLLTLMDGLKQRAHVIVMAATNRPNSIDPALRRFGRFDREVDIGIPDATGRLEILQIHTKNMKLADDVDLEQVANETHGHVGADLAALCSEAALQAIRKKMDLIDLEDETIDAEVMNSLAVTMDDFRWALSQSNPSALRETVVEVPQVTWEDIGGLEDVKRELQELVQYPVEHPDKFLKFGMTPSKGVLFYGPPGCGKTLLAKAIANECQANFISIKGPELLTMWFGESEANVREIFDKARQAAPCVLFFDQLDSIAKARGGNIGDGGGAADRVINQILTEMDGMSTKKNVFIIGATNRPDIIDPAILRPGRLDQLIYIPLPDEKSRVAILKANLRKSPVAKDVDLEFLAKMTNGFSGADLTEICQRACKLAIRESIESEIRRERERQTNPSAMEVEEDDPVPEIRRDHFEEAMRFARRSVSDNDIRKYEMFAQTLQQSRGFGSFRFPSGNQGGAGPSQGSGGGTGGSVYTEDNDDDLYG
Chain of E305Q VCP/p97 ATPase (P55072 whole entry E305Q): as the sequence (P55072 whole entry E578Q) above, with E305Q, Q578E counted along it
Chain of WT VCP/p97 ATPase (P55072 whole entry): as the sequence (P55072 whole entry E578Q) above, with Q578E counted along it

Compound | IC50 (WT VCP/p97 ATPase) | IC50 (E578Q VCP/p97 ATPase) | IC50 (E305Q VCP/p97 ATPase) | IC50 ([1]; Homo sapiens) | IC50 ([2]; Homo sapiens) | also measured
Ivermectin | > 30 µM | > 30 µM | > 30 µM |  |  | IC50 [1]: 9.7 µM; IC50 [2]: > 40 µM; IC50 WT VCP/p97 ATPase activity (WT VCP/p97 ATPase): did not show activity
NMS-249 |  |  |  |  |  | IC50 (VCP): 0.29 µM
CC(C)C[C@@H](C=O)NC(=O)[C@H](CC(C)C)NC(=O)[C@H](CC(C)C)NC(=O)OCc1ccccc1 [MG132] (Cbz-Leu-Leu-Leu-aldehyde) |  |  |  | 1.2 µM | 4.4 µM | 
CC#CCC(C)[C@H](O)/C=C/[C@@H]1[C@H]2C/C(=C/CCCC(=O)O)C[C@H]2C[C@H]1O (stereo partly drawn) [Iloprost] |  |  |  | > 40 µM | > 40 µM | 
NMS-862 |  |  |  |  |  | IC50 (VCP): 2.66 µM
CC(C)(C)c1ccc(C(=O)CCCN2CCC(OC(c3ccccc3)c3ccccc3)CC2)cc1 [Ebastine] |  |  |  |  |  | sensitization of NSCLC cells to chemotherapy (NSCLC cells): sensitized NSCLC cells to chemotherapy
O=C(Nc1ccc([N+](=O)[O-])cc1Cl)c1cc(Cl)ccc1O [Niclosamide] |  |  |  | > 40 µM | > 40 µM | 
Cc1cc(OCc2nnc(SC3CCCC3)n2-c2cccnc2)ccc1-c1ccc(S(C)(=O)=O)cc1 [NMS-873] |  |  |  |  | > 40 µM | IC50 [1]: 1.4 µM; IC50 (VCP): 0.03 µM; bioavailability [3]: modest; systemic exposure [3]: modest

The next lines start with results.

IC50 (WT VCP/p97 ATPase) | IC50 (E578Q VCP/p97 ATPase) | IC50 (E305Q VCP/p97 ATPase) | IC50 ([1]; Homo sapiens) | IC50 ([2]; Homo sapiens) | Compound | also measured
3 µM | 11 µM | 5.5 µM |  |  | c1ccc(CNc2nc(NCc3ccccc3)c3ccccc3n2)cc1 [DBeQ] | IC50 increase against the D2 mutant relative to wild-type VCP/p97 (E578Q VCP/p97 ATPase; E578Q vs WT): 3.7 fold; IC50 increase against the D1 mutant relative to wild-type VCP/p97 (E305Q VCP/p97 ATPase; E305Q vs WT): 1.8 fold
> 30 µM | > 30 µM | > 30 µM | 10.7 µM | 20.8 µM | CC(C)(C)NC(=O)[C@@H]1C[C@@H]2CCCC[C@@H]2CN1C[C@@H](O)[C@H](Cc1ccccc1)NC(=O)[C@H](CC(N)=O)NC(=O)c1ccc2ccccc2n1 [Saquinavir] | 
12 µM | 8 µM and 8.2 µM | 8 µM |  |  | Clc1ccccc1C(c1ccccc1)(c1ccccc1)n1ccnc1 [Clotrimazole] | water solubility [4]: poor
25 µM | > 30 µM | > 30 µM |  |  | COc1ccc(CCN2CCC(Nc3nc4ccccc4n3Cc3ccc(F)cc3)CC2)cc1 [Astemizole] | sensitization of NSCLC cells to chemotherapy (NSCLC cells): sensitized NSCLC cells to chemotherapy; tumor growth inhibition (tumor growth): sufficient to inhibit tumor growth
